Experimental data: article doi:10.1101/2021.05.29.446083v1 (biorxiv, 2021)
Residue numbers refer to the chain shown, from its start.

Key:
5-HT1F [1] = biological target: T1, 5-HT1F (Homo sapiens, UniProt P30939, F310A); test: NanoBiT Gi recruitment assay; format: cell-based
T1 sequence (P30939 1-366 F310A): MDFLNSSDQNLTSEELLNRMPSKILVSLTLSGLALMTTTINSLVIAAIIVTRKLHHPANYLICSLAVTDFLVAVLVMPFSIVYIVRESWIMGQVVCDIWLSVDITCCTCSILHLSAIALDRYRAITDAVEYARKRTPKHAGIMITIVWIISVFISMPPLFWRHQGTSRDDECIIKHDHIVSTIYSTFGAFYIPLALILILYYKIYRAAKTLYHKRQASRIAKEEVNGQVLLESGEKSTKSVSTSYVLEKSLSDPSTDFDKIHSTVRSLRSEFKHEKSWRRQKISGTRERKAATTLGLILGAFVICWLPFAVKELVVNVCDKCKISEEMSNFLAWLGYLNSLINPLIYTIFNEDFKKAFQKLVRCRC

5-HT1F [2] = biological target: T2, 5-HT1F (Homo sapiens, UniProt P30939, I104A); test: NanoBiT Gi recruitment assay; format: cell-based
T2 sequence (P30939 1-366 I104A): T1 sequence (P30939 1-366 F310A) with I104A, A310F

5-HT1F [3] = biological target: T3, 5-HT1F (Homo sapiens, UniProt P30939); test: NanoBiT Gi recruitment assay; format: cell-based
T3 sequence (P30939 1-366): T1 sequence (P30939 1-366 F310A) with A310F

5-HT1F–Gi1 complex = 5-HT1F–Gi1 complex (Homo sapiens, UniProt P30939); test: cryo-EM structure, […] Å; details: orthosteric and extended binding pocket; 10 μM lasmiditan, pH 7.4

CN1CCC(C(=O)c2cccc(NC(=O)c3c(F)cc(F)cc3F)n2)CC1 [lasmiditan]
EC50 (5-HT1F [1]): > 100000 nM
EC50 (5-HT1F [2]): 2190 nM
EC50 (5-HT1F [3]): 30.2 nM
cryo-EM structure, 3.4 Å (5-HT1F–Gi1 complex): the lasmiditan-bound 5-HT1F–Gi complex
